Experimental data as given in patent publication US9486447B2, “Compositions and methods for controlling neuronal excitation” (The General Hospital Corporation, priority 2011, dated 2016).

How the values were obtained:
[1] = Crossing of the epidermis after topical application; assay type: in vivo, human; conditions: humans as well as zebrafish
Source text: As described herein, photo-sensitive TrpA1 agonists can be bioavailable. […] In some embodiments, a photo-sensitive TrpA1 agonist can be bioavailable when administered systemically. […] In some embodiments, oral administration of a photo-sensitive TrpA1 agonist can be considered for any method described herein.
Photo-sensitive TrpA1 agonists described herein can be administered by any delivery method known in the art, including but not limited to, injection; parenteral, intravenous, intramuscular, subcutaneous, transdermal, airway (aerosol), pulmonary, direct application, microsurgery, endoscopic surgery, topically, orally, vaginally and/or by contact with the gastro-intestinal lumen. […] This would agonist to all, or at least a variety of tissues, depending e.g. upon design/modification of the agonist to limit or expand systemic bioavailability such that electromagnetic radiation applied to any desired location would be expected to activate neuronal activity at the site of irradiation. In some embodiments, the photo-sensitive TrpA1 agonist can be administered systemically. In some embodiments, the photo-sensitive TrpA1 agonist can be administered locally.

adult zebrafish = assay: 405 nm laser illumination of adult and spinalized zebrafish; assay type: in vivo
Procedure: Optovin's capacity to function in intact adult animals will impact its suitability for future clinical and research applications. Thus, the effects of 405 nm laser illumination on optovin-treated adult zebrafish were analyzed. […] To determine if fin contraction was voluntary or involuntary, the experiment was repeated using spinalized preparations. Optical control of dorsal fin contraction was preserved in spinalized animals treated with optovin (data not shown). Furthermore, carefully controlled laser illumination of specific regions along the body of spinalized zebrafish produced specific dorsal, ventral, and lateral tail movements reminiscent of those used by intact fish during swimming (data not shown). Because zebrafish TRPA1 is primarily expressed in sensory neurons, these contractions and swimming behaviors likely occur via activation of spinal reflex arcs.
Adult zebrafish (0.5-1.5 years) were briefly anesthetized in ice water and quickly decapitated with a sharp razor blade. Spinalized preparations were incubated in optovin (50 μM) for 1-2 min prior to testing with laser light stimuli (405 nm, 400 μW mm−2).

hTRPA1 = target: T1, hTRPA1 (Homo sapiens, UniProt O75762); assay: Calcium imaging of transfected HEK cells; assay type: cell-based
T1 construct: expressed in transfected cells; host or cells: HEK293 / HEK293T
Procedure: (§1) To determine if TRPA1 is sufficient for optovin activity, current density amplitudes were analyzed via whole-cell patch clamping in HEK293T cells transfected with the human TrpA1 (hTrpA1) gene.
HEK293 cells were plated onto poly-lysine-coated glass bottom culture dishes (MatTek Corp), and grown in Dulbecco's Modified Eagle's Medium (DMEM, Sigma) supplemented with 10% fetal bovine serum and 100 U/mL penicillin and 100 μg/ml streptomycin. After 24 hrs, cells were transfected, according to manufacturer's instructions, in Opti-MEM media, using 4 μl lipofectamine 2000 (Invitrogen), 0.5 ug EGFP in pcDNA, and 0.3 μg TrpA1 DNA per dish. Media was replaced after 2 hours, and cells were cultured for an additional 17 hours. As previously described for neurons, HEK cells were washed with assay buffer (HBSS Gibco 14025, supplemented with 9 mM HEPES, 11 mM D-glucose, 0.1% fatty-acid free BSA, pH 7.3) and incubated for 1 h with 2 μM Fura2-AM (Invitrogen) with 0.2% pluronic (Invitrogen) in assay buffer in the dark at room temperature. The cells were then washed with assay buffer and allowed to equilibrate at room temperature for 30 min prior to imaging. At the start of the imaging session for each dish, cells were replaced with DMSO-assay buffer. After 50 seconds of imaging, assay buffer was aspirated by hand, and replaced with 100 μM optovin dissolved in the DMSO-assay buffer solution. Each dish of HEK cells was imaged for a total of 3 minutes.
Cells were transfected with the hTRPA1^44, TRPA1 C621S^44, hTRPA1 C633S^45 and hTRPA1 C633S, C856S^45 plasmids as described.

[2] = Reactive oxygen species generation (singlet oxygen sensor green, NBT); assay type: physicochemical
Source text: (§2) How might optovin activate TRPA1? When molecules absorb light, photons can excite electrons from their ground state to a […] via intersystem crossing^37. These photoactivated compounds can then undergo reactions by transferring energy or electrons to target molecules, including aqueous molecular oxygen. Optovin is a yellow-colored compound with peak absorbance at 415 nm (FIG. 4A). To determine if optovin is photochemically reactive, it was exposed to increasing intensities of 415 nm light and assayed for reactive oxygen species (ROS) generation.
(§3) Assay for singlet oxygen generation using singlet oxygen sensor green (SOSG) UV-vis absorption spectra were recorded at 20 uM in methanol using an Evolution 300 UV-Vis Spectrophotometer (Thermo Fisher Scientific Inc., Waltham, Mass.). 96-well black-sided plates were used for fluorescent probe experiments. SOSG (Molecular Probes Invitrogen, Eugene, Oreg.) as a 1 mM stock solution in DMF was added to give final concentration of 5 μM SOSG, to optovin and analogues dissolved as 5 μM solutions in 200 μL 50% H2O/CH3CN preloaded in 96-well plates. An Omnilux Clear-U LED light source (Photo Therapeutics Inc), Carlsbad, Calif.) that emits blue light 415-nm+15-nm as a homogeneous spot with an irradiance of 50 mW/cm^2 measured with a power meter (model DMM 199 with 201 standard head; Coherent, Santa Clara, Calif.) that covers an area of one half of a 96-well plate.
Fluorescence spectrophotometry was carried out with SpectraMax M5 plate reader (Molecular Devices, Sunnyvale, Calif.) using excitation and emission at 504 and 525-nm Fluorescence was read after each successive increment of blue light was delivered. As a positive control for a known photosensitizer that absorbs 415-nm light with a quantum yield of singlet oxygen of approximately 0.6 we used a conjugate between polyethylenimine and chlorin(e6) (PEI-ce6)^46.

[3] = UV-Vis absorbance spectrum; assay type: physicochemical
Source text: as §2
as §3, with “SOSG (Molecular Probes Invitrogen, Eugene, Oreg.) as a 1 mM stock solution in DMF was added to give final concentration of 5 μM SOSG, to optovin and analogues dissolved as 5 μM solutions in 200 μL 50% H2O/CH3CN preloaded in 96-well plates.” left out

human TrpA1 (hTrpA1) = target: T2, human TrpA1 (hTrpA1) (Homo sapiens, UniProt O75762); assay: Whole-cell patch clamp in transfected HEK293T cells; assay type: cell-based; conditions: 10 μM, following photo-stimulation (405 nm)
T2 construct: expressed in transfected cells; host or cells: HEK293 / HEK293T
Procedure: as §1
HEK293 cells were plated upon poly-lysine coated cover slips and transiently transfected with human TRPA1. Voltage clamp recordings were made in the whole-cell configuration 48 hours after transfection using glass electrodes with 2-4M ohm resistance when filled with (in mM) 140 CsCl, 2 Mg2ATP3, 2 MgCl, 5 EGTA, and 10 HEPES (pH adjusted to 7.2 with CsOH) and while bathed at room temperature in extracellular solution containing (in mM) 150 NaCl, 5.4 KCl, 1.8 CaCl2, 1 MgCl, and 5 mM HEPES (pH adjusted to 7.4 with NaOH). A voltage ramp protocol from −80 mV to +80 mV over 400 ms was repeated every 5 seconds during the following conditions: while the cell was dialyzed by the pipette, followed by at least 60 seconds of illumination with 405 nm light, after which optovin (10 μM) containing extracellular solution was perfused into the bath, followed by 1 minute of illumination. Current elicited at holding potentials of +/−70 mV were used to characterize TRPA1 activation.

T1 sequence (O75762 whole entry): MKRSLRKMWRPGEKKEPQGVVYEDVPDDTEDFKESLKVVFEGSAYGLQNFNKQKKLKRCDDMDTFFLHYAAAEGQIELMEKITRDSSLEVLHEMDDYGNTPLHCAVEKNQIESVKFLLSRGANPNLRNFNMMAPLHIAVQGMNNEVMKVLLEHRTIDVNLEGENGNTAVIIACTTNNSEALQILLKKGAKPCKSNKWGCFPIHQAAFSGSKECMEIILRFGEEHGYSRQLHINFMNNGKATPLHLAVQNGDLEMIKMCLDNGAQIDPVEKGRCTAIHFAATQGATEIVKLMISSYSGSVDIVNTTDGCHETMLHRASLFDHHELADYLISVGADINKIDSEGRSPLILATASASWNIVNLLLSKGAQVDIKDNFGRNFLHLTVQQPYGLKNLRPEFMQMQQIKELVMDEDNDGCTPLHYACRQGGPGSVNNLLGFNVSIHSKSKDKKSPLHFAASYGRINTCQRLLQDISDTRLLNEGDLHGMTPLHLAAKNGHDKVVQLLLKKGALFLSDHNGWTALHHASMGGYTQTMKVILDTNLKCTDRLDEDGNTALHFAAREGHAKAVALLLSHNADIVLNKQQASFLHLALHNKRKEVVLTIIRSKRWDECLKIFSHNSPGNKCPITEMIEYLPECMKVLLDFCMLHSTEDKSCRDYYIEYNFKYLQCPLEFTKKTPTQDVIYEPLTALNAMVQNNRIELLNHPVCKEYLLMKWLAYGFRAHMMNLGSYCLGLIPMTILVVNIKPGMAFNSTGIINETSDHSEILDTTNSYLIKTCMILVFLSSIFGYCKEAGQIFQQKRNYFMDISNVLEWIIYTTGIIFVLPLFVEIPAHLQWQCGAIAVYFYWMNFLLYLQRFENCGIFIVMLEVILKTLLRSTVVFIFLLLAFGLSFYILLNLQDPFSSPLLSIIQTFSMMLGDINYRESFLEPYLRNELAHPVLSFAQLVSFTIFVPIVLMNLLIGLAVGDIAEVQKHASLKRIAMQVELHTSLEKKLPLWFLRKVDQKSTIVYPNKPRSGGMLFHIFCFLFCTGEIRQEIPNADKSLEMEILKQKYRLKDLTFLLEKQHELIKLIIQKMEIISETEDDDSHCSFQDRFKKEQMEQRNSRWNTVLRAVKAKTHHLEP
T2 sequence (O75762 whole entry): as above

Q: Which “crossing the epidermis to reach underlying muscles at an effective concentration” value [1] does the source give for `Cc1cc(/C=C2/SC(=S)NC2=O)c(C)n1-c1cccnc1` [optovin] here?
A: The value was “able to cross the epidermis”.

Q: What about the “dorsal fin response to 405 nm laser illumination” value (adult zebrafish; intact adult zebrafish) of the same compound?
A: Its value is “rapid and reversible contraction of the fin”.

Q: What about the “optical control of dorsal fin contraction” value (adult zebrafish; spinalized animals) of the same compound?
A: Its value is “preserved”.

Q: And the “change in fluorescence in response to light and optovin” value (hTRPA1; WT channels)?
A: Its value is “strong change in fluorescence”.

Q: And the “effect of catalase and superoxide dismutase on optovin's effects” value (hTRPA1; hTRPA1 transfected HEK cells)?
A: The value was “Neither catalase nor superoxide dismutase reduce optovin's effects”.

Q: What about the calcium levels (hTRPA1; optovin and light, HEK cells transfected with hTrpA1) of the same compound?
A: Its calcium levels is “elevated calcium levels were observed”.

Q: And the “hydroxyl radical and superoxide generation” value ([2]; 415 nm light)?
A: The value was “neither hydroxyl radicals nor superoxide”.

Q: What about the singlet oxygen generation ([2]; 415 nm light) of the same compound?
A: The singlet oxygen generation was “generates singlet oxygen”.

Q: What about the “singlet oxygen quantum yield” value ([2]; estimated by comparison with PEI-ce6) of the same compound?
A: The value was “about 0.04”.

Q: What about the peak absorbance [3] of the same compound?
A: The peak absorbance was 415 nm.

Q: What about the “current density amplitudes in response to positive voltage steps” value (human TrpA1 (hTrpA1)) of the same compound?
A: Its value is “significantly increased”.
